Test results published in patent US6288028A, “BPC peptide salts with organo-protective activity, the process for their preparation and their use in therapy” (priority 1997, dated 2001).
Where no end group is shown, it is not given here.

Assays:
[1] = test system: gastric lesions (96% ethanol); test: Ethanol gastric lesions, NO-system; type: in vivo, rats; settings: for effect on ethanol gastric lesions, agent given alone: NaBPC157 10 μg or 10 ng/kg i.p. with 96% ethanol i.g., 1 hour, L-NAME 5 mg/kg i.v., L-arginine 200 mg/kg i.v. 5 minutes before
Experimental: Some of the effects of NaBPC157 (10 μg or 10 ng/kg) were challenged in rats, such as the salutary activity against gastric lesions and NaBPC157's activity with respect to blood pressure maintenance. The lesions were obtained by using a 1 hour ethanol treatment (96%, i.g. (intragastrically)). NaBPC157 was simultaneously applied (i.p. (intraperitoneally)). In the blood pressure maintenance experiment, NaBPC157 was given intravenously (i.v.).
Also studied was the combined application of N^G -nitro-L-arginine methylester (L-NAME) (5 mg/kg i.v.), a competitive inhibitor of endothelium nitric oxide (NO)-generation and the NO-precursor L-arginine (200 mg/kg i.v.) (D-arginine was ineffective). In the gastric lesion assays, the NO-agents were given 5 minutes before the ethanol injury and the treatment with NaBPC157.

[2] = test system: Pulmonary Hypertension Syndrome (PHS) and tissue lesions; test: Pulmonary Hypertension Syndrome, acute and chronic toxicity; type: in vivo, chicks; settings: for tissue or organ damage (pathohistology): acute and chronic toxicity
Experimental: The present experiments describe the effects of nitric oxide (NO) agonists and antagonists and the influence of NaBPC157 on the development of Pulmonary Hypertension Syndrome (PHS) and tissue lesions in chicks. Experiments investigating acute toxicity were conducted. These included single dose applications of saline (1 ml i.p.), NaBPC157 (10 μg/kg b.w.), L-NAME (NO antagonist/doses 50, 100, 150 mg/kg b.w.) and L-arginine (NO agonist/100 mg/kg b.w./with their combination (L-NAME+NaBPC157, L-NAME+L-arginine)). Pathohistological examinations of the spleen, heart, liver and lungs and hematological analyses were conducted. Furthermore, chronic toxicity experiments were conducted. The animals were treated daily during five weeks with L-NAME (10 mg/kg b.w.), L-arginine (100 mg/kg b.w.), NaBPC157 (10 μg/kg b.w.) and their combinations (L-NAME+NaBPC157, L-NAME+L-arginine) intraperitoneally. Seven animals from each group including controls (saline 1 ml i.p.) were sacrificed every week.

restraint stress lesions = test: 48 hour-restraint stress ulcer model; type: in vivo, rats
Experimental: (§1) The effects of NaBPC157 (10 μg or 10 ng/kg i.p., i.g.) were investigated in rats in comparison with several reference standards in several experimental ulcer models (48 hour-restraint stress, subcutaneous cysteamine, intragastrical 96% ethanol ulcer tests, NSAIAs-lesions, DNFB (Dinitrofluorhenzene), reflux esophagitis following esophagojejunal termino-lateral anastomosis) (pre-/co-/post-treatment).

DNFB-intestinal lesions = test: DNFB-intestinal lesions; parameters: species or system rats; settings: rat, in vivo
Experimental: as §1

[3] = test system: mobility in chronically stressed rats; test: Chronic unpredictable stress, open field-immobility test; type: in vivo, rat; settings: NaBPC157 10 μg, 10 ng; imipramine 30 mg; once daily
From the text: Various antidepressants have antiulcer activity and the models currently used in ulcer and depression research share a considerable degree of similarity. Therefore, the possibility that depression disorders could be effectively influenced by a primary antiulcer agent with cyto-/organo-protective activity such as NaBPC157 was investigated in two rat depression assays: the forced swimming test (a Porsolt's procedure) and the chronic unpredictable stress method (after five days of unpredictable stress protocol, once-daily drug application during the stress procedure and an open field-immobility test assessment at fourth and sixth days of medication).

[4] = test system: portal blood pressure, organ lesions; test: Chronic alcohol intoxication; type: in vivo, Male Albino Wistar rats; settings: alcohol for three months; NaBPC157 10 μg, 10 ng/kg; propranolol, ranitidine 10 mg/kg b.w.
Experimental: The effects of NaBPC157 on chronic alcohol intoxication were examined. Male Albino Wistar rats were used for these experiments. The rats were drinking either commercial whiskey or ethanol (10-20% water solution) for three months. The application of NaBPC157 (10 μg, 10 ng/kg b.w.), propranolol (10 mg/kg b.w.), and ranitidine (10 mg/kg b.w.) (control rats received an equivolume of saline 5.0 ml/kg), either intragastrically or intraperitoneally, was conducted either prophylactically (10 days before alcohol initiation) or as a co-treatment together with alcohol or therapeutically (starting at the end of a two month period, i.e. during the last month of the experiment).

reflux esophagitis = test: Reflux esophagitis after esophagojejunal anastomosis; parameters: species or system rats; settings: rat, in vivo
Experimental: as §1

[5] = test system: amphetamine stereotyped behavior; test: Amphetamine stereotypes and excitability; type: in vivo, rats; settings: no amphetamine
Experimental: The effects of NaBPC157 on the dopamine agonist amphetamine (10 mg/kg i.p.) stereotypes and on excitability were studied. NaBPC157 was applied as a prophylactic co-treatment or therapeutic salutary regimen (10 μg or 10 ng/kg i.p.). The stereotyped behaviour and excitability was induced in rats.

[6] = test system: diazepam tolerance and withdrawal; test: Diazepam tolerance and physical dependence, isoniazid latencies; parameters: species or system mice; settings: mouse, in vivo
Experimental: In tolerance assays forty-two hours after the conditioning regimen, shorter preconvulsive latencies than that in healthy mice following an isoniazid treatment (800 mg/kg i.p.) were observed if diazepam (5.0 mg/kg i.p.) was given again to mice previously conditioned with diazepam alone. […] In this group at six hour intervals, unlike in diazepam conditioned mice, isoniazid preconvulsive latencies were still longer than in corresponding controls.

Toxicity observations = type: in vivo; settings: high dosages (e.g. g/kg b.w., i.p.)
ethanol ulcer = test: Intragastrical 96% ethanol ulcer test; type: in vivo, rats; settings: reference peptides; related to treatment conditions
cysteamine ulcer = test: Subcutaneous cysteamine ulcer test; type: in vivo, rats; settings: reference peptides

## N=C(N)NCCC[C@@H](N)C(=O)O [D-arginine]
[1]
  effect on ethanol gastric lesions, agent given alone: ineffective

## COC(=O)[C@@H](N)CCCNC(=N)N[N+](=O)[O-] [L-NAME, N^G -nitro-L-arginine methylester]
[1]
  effect on ethanol gastric lesions, agent given alone: had no effect
[2]; L-NAME
  induction of PHS: caused PHS
[2]
  tissue or organ damage (pathohistology): caused severe tissue damage
[2]; in vivo
  hematological analyses: significant hemoglobin and leukocyte number decreases

## N=C(N)NCCC[C@H](N)C(=O)O [L-arginine]
[1]; L-NAME 5 mg/kg i.v. 5 minutes before ethanol
  antiulcer activity after L-NAME: completely abolished
[1]
  effect on ethanol gastric lesions, agent given alone: antiulcer effect
[2]
  tissue or organ damage (pathohistology): provoked predominantly congestion, edema and hemorrhages in all organs
[2]; in vivo
  inhibition of the effects of L-NAME: successfully inhibited
[2]; simultaneous application, L-arginine 100 mg/kg, NaBPC157 10 μg/kg b.w.
  prevention of L-NAME-caused PHS: prevented

## NC12CC3CC(CC(C3)C1)C2 [amatadine]
Restraint stress lesions
  effect in restraint stress: ineffective

## CC(C)C[C@H]1C(=O)N2CCC[C@H]2[C@]2(O)O[C@](NC(=O)[C@@H]3C=C4c5cccc6[nH]c(Br)c(c56)C[C@H]4N(C)C3)(C(C)C)C(=O)N12 [bromocriptine]
Restraint stress lesions
  effect in restraint stress: ineffective
DNFB-intestinal lesions
  effect on DNFB-intestinal lesions: only partially effective

## CN/C(=N/CCSCc1nc[nH]c1C)NC#N [cimetidine]
Restraint stress lesions
  effect in restraint stress: ineffective

## NC(N)=Nc1nc(CSCCC(N)=NS(N)(=O)=O)cs1 [famotidine]
Restraint stress lesions
  effect in restraint stress: ineffective

## CN(C)CCCN1c2ccccc2CCc2ccccc21 [imipramine]
[3]
  mobility in chronic unpredictable stress: failure of imipramine activity

## CC(C)NCC(O)COc1cccc2ccccc12 (stereo not drawn) [propranolol]
[4]
  portal blood pressure: markedly prevented and/or decreased

## CNC(=C[N+](=O)[O-])NCCSCc1ccc(CN(C)C)o1 [ranitidine]
[4]
  portal blood pressure: even more increased portal pressure values
Reflux esophagitis
  effect on reflux esophagitis: only partially effective

## C[C@H](N)C(=O)NCC(=O)N[C@H]1CSSC[C@@H](C(=O)O)NC(=O)[C@H](CO)NC(=O)[C@H]([C@@H](C)O)NC(=O)[C@H](Cc2ccccc2)NC(=O)[C@H]([C@@H](C)O)NC(=O)[C@H](CCCCN)NC(=O)[C@H](Cc2c[nH]c3ccccc23)NC(=O)[C@H](Cc2ccccc2)NC(=O)[C@H](Cc2ccccc2)NC(=O)[C@H](CC(N)=O)NC(=O)[C@H](CCCCN)NC1=O [somatostatin]
Restraint stress lesions
  effect in restraint stress: ineffective

## GEPPPGKPADDAGLV [NaBPC157, Monosodium Salt of BPC157]
[5]
  gross behavior, agent alone: does not affect gross behavior or induce stereotypes
[6]
  tolerance effect of the agent itself: does not produce any tolerance effect
Toxicity observations
  influence on basal parameters: No influence on different basal parameters
  toxicity at high dosages: no toxicity
[2]
  tissue or organ damage (pathohistology): did not cause any tissue or organ damage

## NPY
Ethanol ulcer
  effect, ethanol: partial positive effect
Cysteamine ulcer
  protection, cysteamine: dose-dependent protection

## secretin
Ethanol ulcer
  effect, ethanol: partial positive effect
Cysteamine ulcer
  protection, cysteamine: dose-dependent protection

## sucralfate
Reflux esophagitis
  effect on reflux esophagitis: only partially effective
